Measured values as given in BindingDB's records for doi:10.7270/Q2FT8P6X (n/a, 1994).

Molecular target: Leukotriene B4 receptor (Cavia porcellus)
Assay: Negative logarithm of affinity for leukotriene B4 (LTB4) receptor on guinea pig lung membranes

A Ki of 66 nM was found for `CCc1cc(-c2cccc(C(F)(F)F)c2)c(O)cc1OCCCCCC(C)(C)c1nn[nH]n1` in this work.

A Ki of 63 nM was found for `CCc1cc(-c2ccc(N(C)C)cc2)c(O)cc1OCCCCCC(C)(C)c1nn[nH]n1` in this work.
